What was measured:
[1] = tested on: argan (Argania spinosa) cuttings; test: rooting of argan cuttings; type: in vivo; conditions: after 1.5 months; compound with IBA, or IBA control
Description: The ability of exemplary conjugates to promote rooting in plants which are recalcitrant to rooting (in addition to the results obtained with Eucalyptus grandis in Example 3) was examined using cuttings of argan (Argania spinosa) and jojoba (Simmondsia chinensis) in a commercial nursery (Shorashim). The argan and jojoba cuttings were treated with 100 μM of a conjugate (any of Compounds 10-1t) with 6000 ppm IBA. The common treatment T-8 (talc with 8000 ppm IBA and a fungicide) or 6000 ppm IBA (without conjugate) served as a control.
Exemplary conjugates were also tested for rooting the hard-to-root species of avocado (VC801 rootstock) and argan, according to procedures described hereinabove.

cannabis clone = test: rooting of a difficult to root cannabis clone; type: in vivo; conditions: 6000 ppm IBA with 50 μM compound for 1 minute; 2 weeks; vs IBA alone
Description: Cannabis is usually an easy to root plant. […] A relatively difficult to root cannabis clone was treated with 6000 ppm IBA or with a similar treatment combined with 50 μM of Compound 82 (4-CPA-L-Trp sodium salt) for 1 minute. Rooting was scored after 2 weeks.

[2] = tested on: avocado rootstock cuttings; test: rooting of avocado rootstock cuttings; type: in vivo
Summary of the method: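 Green cuttings of avocado rootstock (including hard-to-root VC801) were treated with auxin conjugates in the presence of IBA and scored for rooting.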

[3] = tested on: transgenic citrus rootstocks; test: rooting of transgenic citrus rootstocks in tissue culture; type: in vivo; conditions: 0% without compound, data not shown
Excerpt: Compound 82 was also used to induce rooting of transgenic citrus rootstocks in tissue culture. It is well known that shoots created in tissue culture conditions following genetic modifications are typically difficult to root. Using Compound 82, 60% rooting was obtained, as compared to 0% without Compound 82 (data not shown).

DR5:venus marker = test: auxin activity by DR5:venus fluorescence in Arabidopsis plants; type: in vivo; conditions: 10 μM
Description: Imaging was performed using an SP8 Leica confocal microscope including solid-state lasers producing 405, 488, 514 and 552 nm light, and hybrid or PMT detectors. Objectives were either PL APO 20×/0.75, WD 0.62 mm or PL APO 63×/1.2 WD 0.3 mm. For fluorescence measurements, the Imaris™ spot detection option (Bitplane A.G.) was used to segment nuclei and calculate the average signal intensity.
One technique for assessing auxin activity of the 4-CPA amino acid conjugates utilized plants expressing nucleus-localized, fluorescent DR5:venus marker, the expression level of which is an indicator of intracellular auxin activity [Laskowski et al., PLoS Biol 2008, 6:e307]. Four days old seedlings grown on regular MS medium were transferred to plates containing 10 μM of the tested compounds and fluorescence was inspected by confocal microscope after 24 hours.
In order to assess the ability of the abovementioned sodium salts to penetrate the cells and activate an auxin response, an Arabidopsis DR5-Venus model was utilized (as described hereinabove). The plants were exposed to 10 μM of each compound for 24 hour; MS medium was used as a negative control, and the related Compounds 1p, 1r and 1t were used as positive controls.

[4] = tested on: cuttings from mature Eucalyptus grandis trees; test: rooting of cuttings from mature Eucalyptus grandis trees; type: in vivo
Summary of the method: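 Cuttings (12-15 cm, two upper leaves halved) from branches of 8-year-old net-house plants; bases dipped 1 min in 6000 ppm IBA potassium salt plus 50 μM conjugate, leaves sprayed with 50 μM conjugate in 0.5% Triton X-100. Rooted at 25° C, 90% humidity, peat:vermiculite:polystyrene 1:2:3; rooting scored after 30-60 days.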

[5] = tested on: Eucalyptus brachyphylla cuttings; test: rooting of Eucalyptus brachyphylla cuttings; type: in vivo; conditions: K-IBA alone or with 100 μM compound
Description: (§1) In order to investigate cloning of productive eucalyptus trees from cuttings, branches were excised from mature Eucalyptus x trabutii and Eucalyptus brachyphylla trees the field (in Kfar Pines, Israel)—selected based on their exceptional nectar production and honeybee attraction—placed in a humidified cooler box and brought to a climate-controlled greenhouse within 2 hours. Each cutting, 7 cm long, included three nodes with only two leaves remaining at its apical end. Two-thirds of each blade was excised to minimize evapotranspiration. The cutting bases were submerged for 1 minute in 6 grams/liter indole-3-butyric acid potassium salt (K-IBA), optionally supplemented with Compound 1s or 1t at a concentration of 100 μM. In addition, the leaves were sprayed with 100 μM of each compound in the presence of 0.05% Triton X-100 surfactant. Stock solutions of Compounds 1s and 1t were at a concentration of 100 mM in DMSO. The cuttings were planted in rooting medium containing peat, vermiculite and polystyrene flakes at a ratio of 1:2:3 respectively, on a heated rooting table under 90% humidity. Fungicides were applied to the rooting media on a weekly basis. Rooting percentage, number of roots per cutting and root length were measured after 1 and 2 weeks and after 1 and 2 months.

[6] = tested on: Eucalyptus x trabutii cuttings; test: rooting of Eucalyptus x trabutii cuttings; type: in vivo; conditions: K-IBA alone or with 100 μM compound
Description: as §1

Arabidopsis seedlings = test: root elongation inhibition in Arabidopsis seedlings; type: in vivo
[7] = tested on: cuttings from mature Eucalyptus grandis trees; conditions: literature value for this model (Abu-Abied et al. 2012); cited from earlier work
mung bean cuttings = test: rooting of mung bean cuttings (number of adventitious roots per cutting); type: in vivo; conditions: 50 μM
Summary of the method: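 Readout was the number of adventitious roots per cutting in mung bean cuttings. Conjugates of 4-CPA, MCPA and 2-DP were tested alongside unconjugated IBA and 2-DP–glycine methyl ester.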

Structure (SMILES)	rooting in argan clone YM3 [1]	roots per cutting in argan clone YM3 [1]	number of roots in cannabis, in words (cannabis clone)	rooting percentage in cannabis, in words (cannabis clone)	root architecture / root length of VC801 avocado cuttings compared to IBA control, in words ([2]; VC801 rootstock)	rooting of transgenic citrus rootstocks [3]	DR5 fluorescence (auxin activity), in words (DR5:venus marker)	rooting of VC801 avocado cuttings ([2]; VC801 rootstock, conjugate, or IBA control)	rooting rate of etiolated avocado branches ([2]; vc51 rootstock, IBA)	rooting rate of green avocado branches ([2]; vc51 rootstock, IBA)	percentage of cuttings which exhibited rooting, stand-alone treatment ([4]; 100 μM conjugate without IBA, or 28 mM (6000 ppm) IBA alone, submerging base or spraying, scored after 45-60 days)	rooting of cuttings, repeated experiment in a different season ([4]; Example 12 repeat: 6000 ppm IBA with 50 μM conjugate, or IBA control)	mean root number per cutting, E. brachyphylla [5]	mean root number per cutting, E. x trabutii [6]	effect on root elongation relative to control, in words (Arabidopsis seedlings; 50 nM, after 5 days)	concentration required to inhibit root elongation (Arabidopsis seedlings; 4 day old seedlings, 5 days on vertical plates)	root development in the presence of IBA potassium salt [7]	rooting of mung bean cuttings (number of roots per cutting) (mung bean cuttings; Table 1, water control 29.6)	rooting of mung bean cuttings (number of roots per cutting) (mung bean cuttings; Table 2)
O=C(COc1ccc(Cl)cc1)N[C@@H](Cc1c[nH]c2ccccc12)C(=O)[O-].[Na+] [Compound 82, 4-CPA-L-Trp sodium salt]	80%	about 7	significant increase in number of roots	small increase in the rooting percentage	considerably increased root length	60%	about as active as their non-water soluble methyl esters												
O=C(O)CCCc1c[nH]c2ccccc12 [IBA, indole-3-butyric acid, reference compound]	50%	2-3						about 35%	80%	10%	12%	10%	about 4	about 5	no apparent inhibitory effect on root elongation	1 to 10 µM	5-15%	81.0	101

From patent US20220030866A1, “CONJUGATES OF AUXIN ANALOGS” (The State of Israel, Ministry of Agriculture & Rural …, priority 2019, published 2022)
